Columns and labels:
[1] = molecular target: T1, cPLA2 (Homo sapiens, UniProt P47712); experiment: Coumarin Assay (cPLA2 inhibition); type: biochemical; conditions: for inhibition at 0.6 µM: CONCENTRATION 0.6 micromolar; for inhibition at 0.7 µM: CONCENTRATION 0.7 micromolar; for inhibition at 1 µM: CONCENTRATION 1 micromolar; for inhibition at 0.9 µM: CONCENTRATION 0.9 micromolar; for inhibition at 3 µM: CONCENTRATION 3 micromolar; for inhibition at 3.8 µM: CONCENTRATION 3.8 micromolar; for inhibition at 2.2 µM: CONCENTRATION 2.2 micromolar; for inhibition at 1.8 µM: CONCENTRATION 1.8 micromolar
T1 sequence (P47712 1-749): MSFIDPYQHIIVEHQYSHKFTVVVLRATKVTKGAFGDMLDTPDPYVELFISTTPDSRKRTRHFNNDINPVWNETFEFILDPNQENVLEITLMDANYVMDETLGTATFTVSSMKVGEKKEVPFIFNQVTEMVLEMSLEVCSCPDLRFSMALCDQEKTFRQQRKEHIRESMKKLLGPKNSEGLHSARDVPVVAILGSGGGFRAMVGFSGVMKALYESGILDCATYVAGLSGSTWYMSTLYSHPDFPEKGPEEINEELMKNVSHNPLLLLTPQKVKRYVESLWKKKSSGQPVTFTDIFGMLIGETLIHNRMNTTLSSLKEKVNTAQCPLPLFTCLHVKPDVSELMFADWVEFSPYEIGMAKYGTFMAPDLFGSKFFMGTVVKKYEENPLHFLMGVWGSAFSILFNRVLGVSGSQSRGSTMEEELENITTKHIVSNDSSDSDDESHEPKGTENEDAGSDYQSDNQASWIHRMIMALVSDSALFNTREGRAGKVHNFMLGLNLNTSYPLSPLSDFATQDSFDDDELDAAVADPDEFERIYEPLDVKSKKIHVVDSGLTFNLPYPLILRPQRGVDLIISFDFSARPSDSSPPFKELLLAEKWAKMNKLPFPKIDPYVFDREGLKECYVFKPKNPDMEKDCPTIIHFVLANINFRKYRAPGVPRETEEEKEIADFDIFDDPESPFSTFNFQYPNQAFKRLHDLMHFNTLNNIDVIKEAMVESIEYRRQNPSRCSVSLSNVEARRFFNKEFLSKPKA
Procedure, shortened: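 Percent inhibition at the stated concentration, from the rate of 460 nm emission rise (360 nm excitation) per minute. Reaction started by adding 4 μg enzyme to compound and 60 μM 7-hydroxycoumarinyl 6-heptenoate in Hepes buffer pH 7.5 with 1 mM EDTA.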

[2] = tested on: Rat Carrageenan-Induced Footpad Edema; experiment: Rat Carrageenan-Induced Footpad Edema Test; type: in vivo, male Sprague Dawley rats; conditions: footpad volume 3 hours after carrageenan; for inhibition in vivo at 2 mg/kg / inhibition in vivo at 10 mg/kg / inhibition in vivo at 5 mg/kg: Rattus norvegicus, 3 h, read-out: PERCENT INHIBITION; for inhibition in vivo at 2 mg/kg / inhibition in vivo at 10 mg/kg: po; for inhibition in vivo at 2 mg/kg / inhibition in vivo at 10 mg/kg / PERCENT INHIBITION: PO; for inhibition in vivo at 5 mg/kg: iv, IV
[3] = CONCENTRATION 0.8 micromolar, read-out: PERCENT INHIBITION @
[4] = CONCENTRATION 2.5 micromolar, read-out: PERCENT INHIBITION @

SMILES: COc1cc(C(=O)NS(=O)(=O)C(F)(F)F)ccc1Cc1cn(C(c2ccccc2)c2ccccc2)c2ccc([N+](=O)[O-])cc12 [Example 37, N-{4-[(1-benzhydryl-5-nitro-1H-indol-3-yl)methyl]-3-methoxybenzoyl}(trifluoro)methanesulfonamide]
- inhibition at 0.4 µM ([1]; CONCENTRATION 0.4 micromolar, read-out: PERCENT INHIBITION @): 50%
- inhibition at 0.5 µM ([1]; CONCENTRATION 0.5 micromolar, read-out: PERCENT INHIBITION @): 50%
- inhibition at 0.55 µM ([1]; CONCENTRATION 0.55 micromolar, read-out: PERCENT INHIBITION @): 50%
- inhibition at 0.65 µM ([1]; CONCENTRATION 0.65 micromolar, read-out: PERCENT INHIBITION @): 50%
- inhibition in vivo at 2 mg/kg ([2]; 2 mg/Kg): -7.94%
- inhibition in vivo at 10 mg/kg ([2]; 10 mg/Kg): 3.36%

SMILES: COc1cc(C(=O)NS(=O)(=O)c2ccccc2C)ccc1Cc1cn(C(c2ccccc2)c2ccccc2)c2ccc(Br)cc12 [Example 38, N-{4-[(1-benzhydryl-5-bromo-1H-indol-3-yl)methyl]-3-methoxybenzoyl}-2-methylbenzenesulfonamide]
- inhibition at 0.3 µM ([1]; CONCENTRATION 0.3 micromolar, read-out: PERCENT INHIBITION @): 50%
- inhibition at 0.45 µM ([1]; CONCENTRATION 0.45 micromolar, read-out: PERCENT INHIBITION @): 50%
- inhibition at 0.57 µM ([1]; CONCENTRATION 0.57 micromolar, read-out: PERCENT INHIBITION @): 50%
- inhibition at 0.59 µM ([1]; CONCENTRATION 0.59 micromolar, read-out: PERCENT INHIBITION @): 50%
- inhibition at 0.6 µM ([1]; read-out: PERCENT INHIBITION @): 50%
- inhibition at 0.64 µM ([1]; CONCENTRATION 0.64 micromolar, read-out: PERCENT INHIBITION @): 50%
- inhibition at 0.7 µM ([1]; read-out: PERCENT INHIBITION @): 50%
- inhibition at 0.85 µM ([1]; CONCENTRATION 0.85 micromolar, read-out: PERCENT INHIBITION @): 50%
- inhibition at 1 µM ([1]; read-out: PERCENT INHIBITION @): 50%
- inhibition in vivo at 2 mg/kg ([2]; 2 mg/Kg): 15.4%
- inhibition in vivo at 10 mg/kg ([2]; 10 mg/Kg): 26.3%

SMILES: COc1cc(C(=O)NS(=O)(=O)C(F)(F)F)ccc1Cc1cn(C(c2ccccc2)c2ccccc2)c2ccc(Br)cc12 [Example 39, N-{4-[(1-benzhydryl-5-bromo-1H-indol-3-yl)methyl]-3-methoxybenzoyl}(trifluoro)methanesulfonamide]
- inhibition at 0.39 µM ([1]; CONCENTRATION 0.39 micromolar, read-out: PERCENT INHIBITION @): 50%
- inhibition at 0.7 µM ([1]; read-out: PERCENT INHIBITION @): 50%
- inhibition at 0.73 µM ([1]; CONCENTRATION 0.73 micromolar, read-out: PERCENT INHIBITION @): 50%
- inhibition at 0.75 µM ([1]; CONCENTRATION 0.75 micromolar, read-out: PERCENT INHIBITION @): 50%
- inhibition at 0.8 µM [1, 3]: 50%
- inhibition at 0.9 µM ([1]; read-out: PERCENT INHIBITION @): 50%
- inhibition at 1 µM ([1]; read-out: PERCENT INHIBITION @): 50%
- inhibition at 1.2 µM ([1]; CONCENTRATION 1.2 micromolar, read-out: PERCENT INHIBITION @): 50%
- inhibition at 1.3 µM ([1]; CONCENTRATION 1.3 micromolar, read-out: PERCENT INHIBITION @): 50%
- inhibition at 1.6 µM ([1]; CONCENTRATION 1.6 micromolar, read-out: PERCENT INHIBITION @): 50%
- inhibition in vivo at 2 mg/kg ([2]; 2 mg/Kg): 1.98%
- inhibition in vivo at 10 mg/kg ([2]; 10 mg/Kg): -7.16%

SMILES: COc1cc(C(=O)NS(=O)(=O)C(F)(F)F)ccc1Cc1cn(C(c2ccccc2)c2ccccc2)c2ccc(NC(=O)C3CCCC3)cc12 [Example 40, N-{1-benzhydryl-3-[2-methoxy-4-({[(trifluoromethyl)sulfonyl]amino}carbonyl)benzyl]-1H-indol-5-yl}cyclopentanecarboxamide]
- PERCENT INHIBITION @ ([1]; CONCENTRATION 2.5 micromolar): 55%
- inhibition at 2.5 µM [1, 4]: 50%
- inhibition at 3 µM ([1]; read-out: PERCENT INHIBITION @): 50%
- inhibition at 3.6 µM ([1]; CONCENTRATION 3.6 micromolar, read-out: PERCENT INHIBITION @): 50%
- inhibition in vivo at 5 mg/kg [2]: 8.21%

SMILES: COc1cc(C(=O)NS(=O)(=O)C(F)(F)F)ccc1Cc1cn(C(c2ccccc2)c2ccccc2)c2ccc(NS(C)(=O)=O)cc12 [Example 41, N-[4-({1-benzhydryl-5-[(methylsulfonyl)amino]-1H-indol-3-yl}methyl)-3-methoxybenzoyl](trifluoro)methanesulfonamide]
- inhibition at 2.5 µM [1, 4]: 50%
- inhibition at 3.8 µM ([1]; read-out: PERCENT INHIBITION @): 50%
- inhibition at 4.3 µM ([1]; CONCENTRATION 4.3 micromolar, read-out: PERCENT INHIBITION @): 50%
- inhibition at 5 µM ([1]; CONCENTRATION 5 micromolar, read-out: PERCENT INHIBITION @): 50%
- inhibition in vivo at 5 mg/kg [2]: 10.1%

SMILES: CCCCNC(=O)Nc1ccc2c(c1)c(Cc1ccc(C(=O)NS(=O)(=O)C(F)(F)F)cc1OC)cn2C(c1ccccc1)c1ccccc1 [Example 42, N-{4-[(1-benzhydryl-5-{[(butylamino)carbonyl]amino}-1H-indol-3-yl)methyl]-3-methoxybenzoyl}(trifluoro)methanesulfonamide]
- inhibition at 2.2 µM ([1]; read-out: PERCENT INHIBITION @): 50%
- inhibition at 3 µM ([1]; read-out: PERCENT INHIBITION @): 50%
- inhibition at 3.8 µM ([1]; read-out: PERCENT INHIBITION @): 50%
- inhibition in vivo at 5 mg/kg [2]: 7.72%

SMILES: COc1cc(C(=O)NS(=O)(=O)C(F)(F)F)ccc1Cc1cn(C(c2ccccc2)c2ccccc2)c2ccc(NS(=O)(=O)Cc3ccccc3)cc12 [Example 45, N-[4-({1-benzhydryl-5-[(benzylsulfonyl)amino]-1H-indol-3-yl}methyl)-3-methoxybenzoyl](trifluoro)methanesulfonamide]
- inhibition at 1.75 µM ([1]; CONCENTRATION 1.75 micromolar, read-out: PERCENT INHIBITION @): 50%
- inhibition at 1.8 µM ([1]; read-out: PERCENT INHIBITION @): 50%
- inhibition at 1.9 µM ([1]; CONCENTRATION 1.9 micromolar, read-out: PERCENT INHIBITION @): 50%
- inhibition at 2 µM ([1]; CONCENTRATION 2 micromolar, read-out: PERCENT INHIBITION @): 50%
- inhibition at 2.1 µM ([1]; CONCENTRATION 2.1 micromolar, read-out: PERCENT INHIBITION @): 50%
- inhibition at 2.5 µM [1, 4]: 74%
- inhibition in vivo at 5 mg/kg [2]: 10.2%

SMILES: COc1cc(C(=O)NS(=O)(=O)C(F)(F)F)ccc1Cc1cn(C(c2ccccc2)c2ccccc2)c2ccc(NC(=O)c3ccsc3)cc12 [Example 46, N-{1-benzhydryl-3-[2-methoxy-4-({[(trifluoromethyl)sulfonyl]amino}carbonyl)benzyl]-1H-indol-5-yl}-3-thiophenecarboxamide]
- inhibition at 2.2 µM ([1]; read-out: PERCENT INHIBITION @): 50%
- inhibition at 2.5 µM [1, 4]: 67%
- inhibition at 2.7 µM ([1]; CONCENTRATION 2.7 micromolar, read-out: PERCENT INHIBITION @): 50%
- inhibition at 3.5 µM ([1]; CONCENTRATION 3.5 micromolar, read-out: PERCENT INHIBITION @): 50%
- inhibition at 4.5 µM ([1]; CONCENTRATION 4.5 micromolar, read-out: PERCENT INHIBITION @): 50%
- inhibition in vivo at 5 mg/kg [2]: 4.58%

SMILES: COc1cc(C(=O)NS(=O)(=O)C(F)(F)F)ccc1Cc1cn(C(c2ccccc2)c2ccccc2)c2ccc(NC(=O)OCc3ccccc3)cc12 [Example 49, benzyl N-{1-benzhydryl-3-[2-methoxy-4-({[(trifluoromethyl)sulfonyl]amino}carbonyl)benzyl]-1H-indol-5-yl}carbamate]
- inhibition at 1.5 µM ([1]; CONCENTRATION 1.5 micromolar, read-out: PERCENT INHIBITION @): 50%
- inhibition at 1.8 µM ([1]; read-out: PERCENT INHIBITION @): 50%
- inhibition at 2.3 µM ([1]; CONCENTRATION 2.3 micromolar, read-out: PERCENT INHIBITION @): 50%
- inhibition in vivo at 5 mg/kg [2]: 18%

SMILES: O=C(O)c1ccc(Cc2cn(C(c3ccccc3)c3ccccc3)c3ccc([N+](=O)[O-])cc23)cc1 [Example 50, 4-[(-benzhydryl-5-nitro-1H-indol-3-yl)methyl]benzoic acid]
- PERCENT INHIBITION @ ([1]; CONCENTRATION 0.8 micromolar): 50%
- PERCENT INHIBITION @ ([1]; CONCENTRATION 0.85 micromolar): 50%
- PERCENT INHIBITION @ ([1]; CONCENTRATION 1.05 micromolar): 50%
- PERCENT INHIBITION @ ([1]; CONCENTRATION 2.5 micromolar): 81%
- PERCENT INHIBITION ([2]; 2 mg/Kg): 5.44%
- PERCENT INHIBITION ([2]; 10 mg/Kg): 12.34%

SMILES: O=C(O)c1ccc(Cc2cn(C(c3ccccc3)c3ccccc3)c3ccc(Br)cc23)cc1 [Example 51, 4-[(1-benzhydryl-5-bromo-1H-indol-3-yl)methyl]benzoic acid]
- inhibition at 0.6 µM ([1]; read-out: PERCENT INHIBITION @): 50%
- inhibition at 0.8 µM [1, 3]: 50%
- inhibition at 0.9 µM ([1]; read-out: PERCENT INHIBITION @): 50%
- inhibition in vivo at 2 mg/kg ([2]; 2 mg/Kg): 3.23%
- inhibition in vivo at 10 mg/kg ([2]; 10 mg/Kg): 15.4%

Source: patent US6500853B1, “Inhibitors of phospholipase enzymes” (Genetics Institute, LLC, priority 1998, dated 2002)
